Values after ≈ are worked out from the molar mass of the structure shown.

The record followed here is ChEMBL document CHEMBL5136978, “Research progress in pharmacological activities and structure-activity relationships of tetralone scaffolds as pharmacophore and fluorescent skeleton” (Eur J Med Chem, 2022).

Assay [1] is filed under the species Homo sapiens. Briefly: Selectivity index, ratio of IC50 for MAO-A (unknown origin) to IC50 for MAO-B (unknown origin).
Assay [2] concerns the target T1, Amine oxidase [flavin-containing] A (Homo sapiens, UniProt P21397).
T1 sequence (P21397 whole entry): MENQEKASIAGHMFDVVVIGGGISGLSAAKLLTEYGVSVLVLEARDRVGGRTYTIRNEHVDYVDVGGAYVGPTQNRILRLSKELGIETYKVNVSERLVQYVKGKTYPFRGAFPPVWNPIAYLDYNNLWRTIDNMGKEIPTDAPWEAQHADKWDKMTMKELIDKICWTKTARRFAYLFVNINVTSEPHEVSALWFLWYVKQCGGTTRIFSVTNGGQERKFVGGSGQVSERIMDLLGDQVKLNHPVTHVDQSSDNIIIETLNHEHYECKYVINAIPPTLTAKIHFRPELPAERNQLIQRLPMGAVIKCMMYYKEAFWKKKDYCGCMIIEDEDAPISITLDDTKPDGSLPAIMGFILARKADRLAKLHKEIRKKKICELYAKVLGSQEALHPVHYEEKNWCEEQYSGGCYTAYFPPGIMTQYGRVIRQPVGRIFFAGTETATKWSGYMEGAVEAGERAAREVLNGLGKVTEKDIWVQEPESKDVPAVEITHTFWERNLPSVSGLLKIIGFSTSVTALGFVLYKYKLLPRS
Put plainly: Inhibition of MAO-A (unknown origin).

Assay [3] addresses T2, Acetylcholinesterase (Homo sapiens, UniProt P22303). Briefly: Inhibition of AChE (unknown origin) using […] preincubated for 15 mins by Ellman's method. (In general: In Ellman's method for cholinesterases, released thiocholine reacts with DTNB.)
The test system of assay [4] is Staphylococcus aureus. Put plainly: Antibacterial activity against Staphylococcus aureus MTCC 096 assessed as bacterial growth inhibition. The class given is functional.
For assay [5], the system named is Escherichia coli. Briefly: Antibacterial activity against Escherichia coli MTCC 443 assessed as bacterial growth inhibition. Type of assay: functional.
Assay [6] has as its system Escherichia coli. Briefly: Antibacterial activity against multidrug resistant Escherichia coli MDREC-KG1 clinical isolate assessed as bacterial growth inhibition. The class given is functional.
The subject of assay [7] is Escherichia coli. Put plainly: Antibacterial activity against multidrug resistant Escherichia coli MDREC-EM7 mutant assessed as bacterial growth inhibition. The class given is functional.
In assay [8] the test system is Escherichia coli. Briefly: Antibacterial activity against multidrug resistant Escherichia coli MDREC-EM5 mutant assessed as bacterial growth inhibition. Type of assay: functional.
The test system of assay [9] is Escherichia coli. Briefly: Antibacterial activity against multidrug resistant Escherichia coli MDREC-KG4 clinical isolate assessed as bacterial growth inhibition. Type of assay: functional.
Assay [10] deals with Mycobacterium tuberculosis. Put plainly: Antibacterial activity against Mycobacterium tuberculosis H37Rv assessed as bacterial growth inhibition. Type of assay: functional.
Assay [11] is filed under the species Rattus norvegicus. Briefly: Selectivity index, ratio of Ki for A2AAR in rat striata to Ki for A1AR in rat whole brain.
The target of assay [12] is T3, Peroxisome proliferator-activated receptor gamma (Homo sapiens, UniProt P37231).
T3 sequence (P37231 whole entry): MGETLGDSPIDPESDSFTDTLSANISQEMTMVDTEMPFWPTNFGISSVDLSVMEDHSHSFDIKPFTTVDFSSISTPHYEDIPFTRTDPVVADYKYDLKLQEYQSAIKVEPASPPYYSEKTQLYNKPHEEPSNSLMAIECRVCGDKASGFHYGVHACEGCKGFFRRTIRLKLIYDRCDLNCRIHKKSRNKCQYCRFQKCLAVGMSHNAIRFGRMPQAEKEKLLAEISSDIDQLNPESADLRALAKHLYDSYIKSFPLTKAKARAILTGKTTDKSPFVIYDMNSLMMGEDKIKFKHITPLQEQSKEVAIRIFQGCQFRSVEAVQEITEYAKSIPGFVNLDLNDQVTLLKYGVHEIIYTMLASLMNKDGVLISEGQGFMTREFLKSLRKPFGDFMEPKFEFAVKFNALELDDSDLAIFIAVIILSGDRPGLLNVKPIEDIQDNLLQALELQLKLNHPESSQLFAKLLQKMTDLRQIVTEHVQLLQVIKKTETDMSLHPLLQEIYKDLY
Briefly: Displacement of isotopically-labeled PPAR-gamma (unknown origin) assessed as inhibition constant by competitive inhibition assay.

Assay [13] deals with KB. Briefly: Cytotoxicity aginst human KB cells assessed as cell growth inhibition. The class given is functional, cell-based.
Assay [14] addresses T2, Acetylcholinesterase. Briefly: Inhibition of AChE (unknown origin) using acetylthiocholine iodide as substrate incubated for 5 mins by Ellman's method.
In assay [15] the target is Cholinesterase (Homo sapiens, UniProt P06276).
Chain of Cholinesterase (P06276 whole entry): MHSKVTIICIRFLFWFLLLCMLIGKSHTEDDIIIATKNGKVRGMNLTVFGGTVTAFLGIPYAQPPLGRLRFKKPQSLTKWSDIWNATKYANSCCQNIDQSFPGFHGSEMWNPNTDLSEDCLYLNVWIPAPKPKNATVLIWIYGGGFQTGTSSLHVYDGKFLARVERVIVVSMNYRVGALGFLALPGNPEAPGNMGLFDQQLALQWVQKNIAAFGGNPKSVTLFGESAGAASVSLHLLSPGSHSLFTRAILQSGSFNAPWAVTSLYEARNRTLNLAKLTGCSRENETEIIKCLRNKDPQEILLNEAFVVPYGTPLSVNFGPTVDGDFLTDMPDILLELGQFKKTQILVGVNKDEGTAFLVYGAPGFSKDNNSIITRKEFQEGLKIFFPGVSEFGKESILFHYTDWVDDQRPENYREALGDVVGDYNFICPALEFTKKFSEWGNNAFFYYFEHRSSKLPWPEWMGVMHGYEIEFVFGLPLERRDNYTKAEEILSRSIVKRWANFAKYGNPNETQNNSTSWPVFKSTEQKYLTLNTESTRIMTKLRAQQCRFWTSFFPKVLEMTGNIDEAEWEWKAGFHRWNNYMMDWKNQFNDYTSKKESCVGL
Description: Inhibition of BuChE (unknown origin) using acetylthiocholine iodide as substrate incubated for 5 mins by Ellman's method
Assay [16] is described as follows: Inhibition of recombinant bovine mitochondrial MAO-B using benzylamine or serotonin as substrate incubated for 60 mins by fluorimetry assay. Set-up: species or system Bos taurus.
The target of assay [17] is T4, Amine oxidase [flavin-containing] A (Bos taurus, UniProt P21398).
T4 sequence (P21398 whole entry): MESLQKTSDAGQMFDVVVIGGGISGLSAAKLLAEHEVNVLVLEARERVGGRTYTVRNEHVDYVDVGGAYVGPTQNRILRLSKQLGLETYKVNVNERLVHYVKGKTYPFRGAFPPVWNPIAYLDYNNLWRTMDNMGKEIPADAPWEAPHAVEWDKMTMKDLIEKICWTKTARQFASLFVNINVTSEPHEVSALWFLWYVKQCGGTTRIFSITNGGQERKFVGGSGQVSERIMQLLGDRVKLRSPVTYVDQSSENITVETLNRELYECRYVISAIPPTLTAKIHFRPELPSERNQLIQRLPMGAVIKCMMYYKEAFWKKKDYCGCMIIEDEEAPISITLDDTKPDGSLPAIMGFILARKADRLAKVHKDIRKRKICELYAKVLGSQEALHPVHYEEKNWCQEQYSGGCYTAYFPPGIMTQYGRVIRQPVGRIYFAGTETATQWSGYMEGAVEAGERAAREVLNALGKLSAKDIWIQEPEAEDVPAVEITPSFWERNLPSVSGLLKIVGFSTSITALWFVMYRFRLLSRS
Description: Inhibition of recombinant bovine mitochondrial MAO-A using benzylamine or serotonin as substrate incubated for 60 mins by fluorimetry assay

The species entered for assay [18] is Homo sapiens. Put plainly: Selectivity index, ratio of IC50 for recombinant human MAO-A to IC50 for recombinant human MAO-B.
Assay [19] has as its target T5, Amine oxidase [flavin-containing] B (Homo sapiens, UniProt P27338).
T5 sequence (P27338 whole entry): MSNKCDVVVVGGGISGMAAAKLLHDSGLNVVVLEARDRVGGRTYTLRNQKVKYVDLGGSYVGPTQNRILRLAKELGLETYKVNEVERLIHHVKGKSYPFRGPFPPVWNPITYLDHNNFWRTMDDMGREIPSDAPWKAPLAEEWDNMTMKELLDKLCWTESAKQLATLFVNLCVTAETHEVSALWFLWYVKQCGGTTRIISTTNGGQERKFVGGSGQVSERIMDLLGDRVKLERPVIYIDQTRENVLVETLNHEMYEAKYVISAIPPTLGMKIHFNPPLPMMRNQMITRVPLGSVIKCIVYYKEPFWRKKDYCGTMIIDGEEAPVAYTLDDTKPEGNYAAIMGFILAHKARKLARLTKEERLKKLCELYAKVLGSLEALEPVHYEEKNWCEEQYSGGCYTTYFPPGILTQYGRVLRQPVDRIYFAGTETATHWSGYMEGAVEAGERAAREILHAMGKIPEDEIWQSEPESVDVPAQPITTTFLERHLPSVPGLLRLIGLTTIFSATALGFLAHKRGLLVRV
Briefly: Inhibition of recombinant human MAO-B using kynuramine as substrate by fluorescence spectrophotometry.

For assay [20], the target named is T1, Amine oxidase [flavin-containing] A. Put plainly: Inhibition of recombinant human MAO-A using kynuramine as substrate by fluorescence spectrophotometry.
Assay [21] has as its system A-431. Put plainly: Antiproliferative activity against human A-431 cells assessed as cell growth inhibition incubated for 48 hrs by methylene blue staining based colorimetric assay. The following applies: A-431, 48 h. The class given is functional.
For assay [22], the system named is Aspergillus niger. Put plainly: Antifungal activity against Aspergillus niger MTCC 343 assessed as fungal growth inhibition. Type of assay: functional.

T2 sequence (P22303 whole entry): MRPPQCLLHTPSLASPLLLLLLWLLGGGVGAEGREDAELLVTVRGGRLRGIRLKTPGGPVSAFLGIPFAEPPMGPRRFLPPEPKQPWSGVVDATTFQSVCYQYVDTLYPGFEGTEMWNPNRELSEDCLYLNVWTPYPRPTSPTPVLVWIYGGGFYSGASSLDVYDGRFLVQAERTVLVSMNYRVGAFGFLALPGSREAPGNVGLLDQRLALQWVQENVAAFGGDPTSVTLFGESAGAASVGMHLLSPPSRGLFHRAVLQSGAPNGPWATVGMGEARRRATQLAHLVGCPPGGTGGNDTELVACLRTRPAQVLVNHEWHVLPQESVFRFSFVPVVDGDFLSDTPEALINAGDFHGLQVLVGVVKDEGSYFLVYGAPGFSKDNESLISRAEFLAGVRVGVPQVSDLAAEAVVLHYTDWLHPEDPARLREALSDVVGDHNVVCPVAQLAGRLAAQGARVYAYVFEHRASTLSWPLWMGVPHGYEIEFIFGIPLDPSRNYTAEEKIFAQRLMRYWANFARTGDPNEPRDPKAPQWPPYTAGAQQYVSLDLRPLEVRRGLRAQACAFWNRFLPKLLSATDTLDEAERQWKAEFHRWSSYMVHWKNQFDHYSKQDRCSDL

Consider `O=C1/C(=C/c2ccc(Cl)c(Cl)c2)CCc2ccc(O)cc21`, for which the Ratio IC50 in [1] stood at 280. In assay [2], this compound returned an IC50 of 1.79 µM.

`COC1CC(=O)c2c(O)ccc(O)c2C1` (configuration not stated): the IC50 in assay [3] is 950 µM.

Consider `COc1ccc2c(c1)CC[C@@H]1C2=NN(C2=NC(=O)C(C)S2)[C@@H]1c1ccccc1` (some centres not stated), for which the MIC in assay [4] and in assay [5] was 6.25 µg/mL (≈ 16 µM) each time. With `COc1cc(C(=O)O[C@H]2CCC(=O)c3ccccc32)cc(OC)c1OC` [4-O-(3,4,5-TRIMETHOXYBENZOYL)-ALPHA-TETRALONE], the MIC in assay [6], in assay [7], in assay [8] and in assay [9] was 250 µg/mL (≈ 702 µM) throughout. Turning to `CO[C@H]1CCC(=O)c2cccc(O)c21`, the MIC – broadly, the lowest concentration that inhibits growth of the organism – in assay [10] was found to be 6.25 µg/mL (≈ 32.5 µM). As for `O=C1/C(=C/c2cccc(O)c2)CCc2c(O)cccc21`, the Ratio Ki in assay [11] was 3.4. For the compound `COc1ccc([C@@H]2CC(=O)c3cc4c(cc3C2)OC(C)(C)C=C4)cc1O`, the Ki (as a rule, a dissociation constant, usually derived from enzyme kinetics or from competition with a known ligand) in assay [12] worked out at 17.9 µM.

For the compound `C[C@@H]1Oc2cccc3c2[C@@H](O1)[C@H](O)CC3=O`, the IC50 in [13] (kb) was 1 ppm. For `CC1SC(N2N=C3c4ccccc4CC[C@H]3[C@H]2c2ccccc2)=NC1=O` (some centres not stated), the minimum inhibitory concentration (MIC) in assay [4] and in assay [5] was 6.25 µg/mL (≈ 17.3 µM) throughout.

For `COc1cc(/C=C2\CCc3cc([N+](=O)[O-])ccc3C2=O)c(Br)c(OC)c1OC`, the IC50 in [14] worked out at 0.57 µM; in [15], 6.2 µM; in assay [16], 0.91 µM; in [17], 0.99 µM.

In [3], `O=C1CC(O)C(O)c2c(O)cccc21` (configuration not stated) gave an IC50 of 1410 µM. As for `Cc1ccc(COc2ccc3c(c2)C(=O)CCC3)cc1`, the Ratio IC50 in [18] was 195.

With `N#Cc1ccc(COc2ccc3c(c2)C(=O)CCC3)cc1`, the IC50 is 0.047 µM in [19] and 0.366 µM in assay [20]. In addition, the Ratio IC50 in [18] was 8. In the case of `CC1(C)C=Cc2cc3c(cc2O1)C[C@H](c1ccc(O)c(O)c1)CC3=O`, in assay [12], the Ki was found to be 5.8 µM. Moreover, the IC50 in assay [13] (Homo sapiens, KB, read-out: IC50) was determined as 1.4 µM. For the compound `Cc1cc(O)c2c(c1)C(O)CCC2=O` (configuration not stated), the MIC in [10] amounted to 100 µg/mL (≈ 520 µM). In the case of `COc1ccc(/C=C2\CCc3ccccc3C2=O)cc1`, the IC50 in assay [21] was above 20 µM. In assay [3], `O=C1CCC(O)c2c(O)cccc21` (configuration not stated) had an IC50 of 1080 µM.

As for `COc1ccc2c(c1)CC[C@@H]1C2=NN(C2=NC(=O)C(C)S2)[C@@H]1c1ccc(Cl)cc1` (some centres not stated), the MIC in [4], in assay [5] and in assay [22] was 12.5 µg/mL (≈ 29.3 µM) throughout.
